Read-outs that look alike come from different tables or passages of the source.

The subject of data set [1] is HUVEC (human umbilical vein endothelial cells). The data set can be described thus: Proliferation and growth of normal cells, HUVEC. It counts as cell-based. The note with it: data not shown.
A further data set concerns the target T1, human pol κ (Homo sapiens, UniProt Q9UBT6).
T1 construct: A truncated form of pol κ (residues 1–560) with 6 x His-tags attached at the C-terminus; 6xHis (C); made in house; host or cells: E. coli
T1 sequence (Q9UBT6 1-560): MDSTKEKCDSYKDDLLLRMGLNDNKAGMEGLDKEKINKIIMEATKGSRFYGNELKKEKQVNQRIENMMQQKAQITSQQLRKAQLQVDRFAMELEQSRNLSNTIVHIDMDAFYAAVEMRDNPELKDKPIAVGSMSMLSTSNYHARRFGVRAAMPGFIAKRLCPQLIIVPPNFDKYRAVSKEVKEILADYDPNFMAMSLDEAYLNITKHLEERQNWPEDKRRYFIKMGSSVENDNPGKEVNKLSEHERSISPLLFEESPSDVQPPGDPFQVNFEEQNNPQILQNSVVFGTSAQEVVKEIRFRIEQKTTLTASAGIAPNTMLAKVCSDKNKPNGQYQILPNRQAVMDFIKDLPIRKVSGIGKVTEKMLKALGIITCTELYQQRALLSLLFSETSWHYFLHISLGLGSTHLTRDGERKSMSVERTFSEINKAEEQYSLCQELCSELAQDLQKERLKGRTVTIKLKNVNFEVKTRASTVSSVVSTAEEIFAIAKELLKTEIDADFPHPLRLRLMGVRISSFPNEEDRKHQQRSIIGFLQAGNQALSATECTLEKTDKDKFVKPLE
In words: Kinetic analysis of the inhibition of human pol κ. Format: biochemical. The following applies: for Ki: Dixon plot. The text has this: Next, to elucidate the mechanism of inhibition, the extent of inhibition as a function of DNA template-primer or dNTP substrate concentrations was studied (Figure 4). In kinetic analysis, poly(dA)/oligo(dT)18 and dTTP were used as the DNA template-primer and dNTP substrate, respectively. […] When activated DNA and four dNTP substrates were used as the DNA template-primer and dNTP substrate, respectively, the inhibition of human pol κ by compound 1 was competitive with the DNA template-primer and non-competitive with the dNTP substrate (data not shown).
Figure 4. Kinetic analysis of the inhibition of human pol κ by compound 1. (A) Human pol κ activity was measured in the absence (closed square) or presence of 4 μM (closed circle), 8 μM (closed triangle) or 12 μM (closed diamond) compound 1 using the indicated concentrations of the DNA template-primer. (B) Human pol κ activity was assayed with the indicated concentrations of the substrate dTTP in the presence of 4 μM (open circle), 8 μM (open triangle) or 12 μM (open diamond) or in the absence (open square) of compound 1. […] Amount of human pol κ in the assay mixture was 0.05 units.
The reaction mixtures for pol α, pol β, plant pols and prokaryotic pols were described previously; those for pol γ, and pols δ and ɛ were as described by Umeda et al. and Ogawa et al., respectively. The reaction mixtures for pols η, ι and κ were the same as for pol α, and the reaction mixture for pol λ was the same as for pol β. For pols, poly(dA)/oligo(dT)18 (A/T = 2/1) and dTTP were used as the DNA template-primer and nucleotide (i.e., dNTP) substrate, respectively. For HIV-1 reverse transcriptase, poly(rA)/oligo(dT)18 (A/T = 2/1) and dTTP were used as the DNA template-primer and nucleotide substrate, respectively. For TdT, oligo(dT)18 (3′-OH) and dTTP were used as the DNA primer and nucleotide substrate, respectively.
The compounds were dissolved in distilled dimethyl sulfoxide (DMSO) at various concentrations and sonicated for 30 sec. Aliquots of 4 μl sonicated samples were mixed with 16 μl of each enzyme (final amount 0.05 units) in 50 mM Tris-HCl (pH7.5) containing 1 mM dithiothreitol, 50% glycerol and 0.1 mM EDTA, and kept at 0 °C for 10 min. These inhibitor-enzyme mixtures (8 μl) were added to 16 μl of each of the enzyme standard reaction mixtures (final concentration of 50 mM Tris-HCl [pH 7.5], 1 mM dithiothreitol, 1 mM MgCl2, 15% glycerol, 10 μM poly(dA)/oligo(dT)18 and 10 μM [^3H]-dTTP), and incubation was carried out at 37 °C for 60 min, except for Taq pol, which was incubated at 74 °C for 60 min. Activity without the inhibitor was considered 100%, and the remaining activity at each concentration of the inhibitor was determined relative to this value. One unit of pol activity was defined as the amount of enzyme that catalyzed the incorporation of 1 nmol dNTP (i.e., dTTP) into synthetic DNA template-primers in 60 min at 37 °C under the normal reaction conditions for each enzyme.

With `C/C=C/c1occ(C(=O)c2c(OC)cc(OC)cc2C(=O)OC)c(=O)c1OC` [compound 1, 3-O-methylfunicone], the “effect on cell proliferation and growth” value in data set [1] is “did not influence”. The “increase in Michaelis constant (Km), DNA template-primer” value at human pol κ (4 μM compound) came out at 295%; at human pol κ (8 μM compound), 467%; at human pol κ (12 μM compound), 812%. Moreover, on human pol κ (12 μM compound, decreased from 41.7 without compound), the “Vmax for the dNTP substrate” value is 11.1 pmol/h. The Ki at human pol κ (read-out: inhibition constant (Ki) for the DNA template-primer) is 1300 nM; at human pol κ (read-out: inhibition constant (Ki) for the dTTP substrate), 4400 nM. For the same molecule, the “mode of inhibition with the DNA template-primer” value at human pol κ (activated DNA as template-primer, data not shown) was “competitive”; at human pol κ (poly(dA)/oligo(dT)18, double reciprocal plots) it was “competitive”. In addition, the “mode of inhibition with the dNTP substrate” value at human pol κ (dTTP, double reciprocal plots) is on record as “non-competitive”; at human pol κ (four dNTP substrates, data not shown), “non-competitive”. Also, the “apparent maximum velocity (Vmax), DNA template-primer” value on human pol κ (unchanged in the presence of 4, 8 and 12 μM compound) is 52.6 pmol/h.

The values above are taken from article PMC2810227, “3-O-Methylfunicone, a Selective Inhibitor of Mammalian Y-Family DNA Polymerases from an Australian Sea Salt Fungal Strain” (Marine Drugs, 2009).
